Molecules are shown by their SMILES. Where two headings read alike, the source gives them in different places.

The term inhibition denotes the drop in the measured response relative to a control, in per cent. Read a high inhibition as strong suppression. By solubility is commonly meant the concentration that dissolves in the medium under given conditions. Higher therefore signals a readily soluble substance. As usually defined, the half-life is the time needed for the level to fall by half in the phase considered. As a reminder, the IC50 is the point on the concentration scale where inhibition reaches its midpoint.

The target in data set [1] is T1, ALK T1151_L1152insT (Homo sapiens, UniProt Q9UM73, INS1151T).
T1 construct: purchased Thermo Fisher Scientific SelectScreen (plus Nanosyn / Reaction Biology for CDK/cyclin lines)
T1 sequence (Q9UM73 with tags, fused parts or gaps INS1151T limits assumed): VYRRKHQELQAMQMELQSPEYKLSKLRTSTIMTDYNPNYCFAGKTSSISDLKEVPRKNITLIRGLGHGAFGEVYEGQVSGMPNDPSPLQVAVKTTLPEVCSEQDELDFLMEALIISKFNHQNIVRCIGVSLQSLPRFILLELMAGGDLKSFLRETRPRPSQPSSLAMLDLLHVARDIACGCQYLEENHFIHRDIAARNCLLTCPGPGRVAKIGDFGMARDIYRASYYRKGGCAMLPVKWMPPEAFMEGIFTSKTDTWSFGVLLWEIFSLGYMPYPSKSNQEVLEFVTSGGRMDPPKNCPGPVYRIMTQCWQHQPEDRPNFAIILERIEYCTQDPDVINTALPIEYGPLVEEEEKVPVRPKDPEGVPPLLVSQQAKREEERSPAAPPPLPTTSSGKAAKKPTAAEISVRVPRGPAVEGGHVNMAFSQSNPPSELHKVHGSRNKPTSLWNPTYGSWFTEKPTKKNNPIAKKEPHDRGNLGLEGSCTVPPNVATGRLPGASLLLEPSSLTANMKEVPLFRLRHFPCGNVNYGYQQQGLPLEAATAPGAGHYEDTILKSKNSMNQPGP
The experiment in a line: SelectScreen LanthaScreen Binding. As to conditions: INX-0315 at 100nM. The text has this:
(§1) INX-315 was first evaluated in the SelectScreen Biochemical Kinase Profiling at Thermo Fisher Scientific (Madison, WI). The primary screen consisted of INX-315 dosed at a single concentration of 100 nmol/L in 1% DMSO across each platform within the SelectScreen array of assays, LanthaScreen Eu Kinase Binding Assay; AdaptaScreen; and Z'LyteScreen using preestablished conditions at Thermo Fisher Scientific as shown in Supplementary Table S2. […] The follow-up screen consisted of 10-point dose–response curves for INX-315 from 1 µmol/L to 0.0495 nmol/L.
In general terms: TR-FRET usually uses a lanthanide donor and a delayed reading to cut background.

Data set [2] addresses T2, CDK2/cyclin E1 (Homo sapiens, UniProt P24941).
T2 construct: purchased Millipore 14-475
The experiment in a line: SelectScreen LanthaScreen Binding. As to conditions: INX-0315 at 100nM.
From the text: as §1

The target in data set [3] is T3, MAP2K4 (MEK4) (Homo sapiens, UniProt P45985).
T3 construct: purchased Thermo Fisher Scientific SelectScreen (plus Nanosyn / Reaction Biology for CDK/cyclin lines)
T3 sequence (P45985 whole entry): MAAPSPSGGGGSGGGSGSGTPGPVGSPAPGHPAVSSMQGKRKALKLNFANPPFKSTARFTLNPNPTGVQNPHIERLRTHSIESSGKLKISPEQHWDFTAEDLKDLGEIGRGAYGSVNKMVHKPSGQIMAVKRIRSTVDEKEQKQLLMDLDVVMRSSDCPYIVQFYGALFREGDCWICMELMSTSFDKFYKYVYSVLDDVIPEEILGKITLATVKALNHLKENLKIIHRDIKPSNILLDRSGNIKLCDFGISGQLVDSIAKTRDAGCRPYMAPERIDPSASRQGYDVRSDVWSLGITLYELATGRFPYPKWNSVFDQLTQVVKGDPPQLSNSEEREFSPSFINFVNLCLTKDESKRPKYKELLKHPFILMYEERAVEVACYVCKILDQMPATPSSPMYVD
The experiment in a line: SelectScreen LanthaScreen Binding. As to conditions: INX-0315 at 100nM.
From the text: as §1

Data set [4] concerns the target T4, NEK8 (Homo sapiens, UniProt Q86SG6).
T4 construct: purchased Thermo Fisher Scientific SelectScreen (plus Nanosyn / Reaction Biology for CDK/cyclin lines)
The experiment in a line: SelectScreen LanthaScreen Binding. As to conditions: INX-0315 at 100nM.
From the text: as §1

Data set [5] concerns the target T5, SLK (Homo sapiens, UniProt Q9H2G2).
T5 construct: purchased Thermo Fisher Scientific SelectScreen (plus Nanosyn / Reaction Biology for CDK/cyclin lines)
The experiment in a line: SelectScreen LanthaScreen Binding. As to conditions: INX-0315 at 100nM.
From the text: as §1

Data set [6] has as its target T6, WNK3 (Homo sapiens, UniProt Q9BYP7).
T6 construct: purchased Thermo Fisher Scientific SelectScreen (plus Nanosyn / Reaction Biology for CDK/cyclin lines)
The experiment in a line: SelectScreen LanthaScreen Binding. As to conditions: INX-0315 at 100nM.
From the text: as §1

For data set [7], the system named is ST4316B PDX. The experiment in a line: PDX tumor growth. It counts as in vivo, mice. As to conditions: monotherapy; ribociclib 50 mg/kg per day. The procedure: (§2) PDX models were performed by Crown Biosciences (OV5398, GA0103, and GA0114) or XenoSTART (ST4316B). Tumor fragments from stock mice were harvested and implanted subcutaneously into the flank of NOD/SCID mice (OV5398, RRID:IMSR_JAX:001303), BALB/c nude mice (GA0103 and GA0114, RRID:IMSR_RJ:BALB-C-NUDE), or athymic nude mice (Crl:NU(NCr)-Foxn1nu, RRID:IMSR_CRL:490) (ST4316B). For CDX models, female athymic nude mice (Crl:NU(NCr)-Foxn1nu, RRID:IMSR_CRL:490) were inoculated with 1 × 10^7 50% Cultrex OVCAR3 cells in the flank. Experiments performed using MMTV-rtTA/tetO-HER2 mice were performed at the Peter MacCallum Cancer Centre. Tumor formation was induced and sustained in female mice with doxycycline as previously described ([33]). Randomization and treatment in all models began when median tumor volume reached a maximum of 300 mm^3.
(§3) Mice were treated via oral gavage. INX-315 was prepared weekly in 100% PEG400; abemaciclib was prepared as previously described ([33]) and ribociclib (Selleckchem, S7440) was prepared weekly in 0.5% methyl cellulose. To generate abemaciclib-resistant MMTV-rtTA/tetO-HER2 tumors, mice were treated continuously with abemaciclib at a dose of 75 mg/kg until tumors resumed growth as described in text. At this point and in all other MMTV-rtTA/tetO-HER2 mice experiments, mice were randomized into treatment groups and abemaciclib was administered to indicated groups at a dose of 50 mg/kg. In all MMTV-rtTA/tetO-HER2 mice experiments, INX-315 was administered at a dose of 50 mg/kg twice daily. For PDX model ST4316B, ribociclib was administered at 50 mg/kg per day.

Data set [8] concerns gastric adenocarcinoma PDX GA0103. The experiment in a line: PDX tumor growth. It counts as in vivo, mice. As to conditions: oral gavage, 56 days. On the procedure:
as §2, §3

Data set [9] deals with gastric adenocarcinoma PDX GA0114. The experiment in a line: PDX tumor growth. It counts as in vivo, mice. As to conditions: 100 mg/kg twice daily, 5-week experiment. The procedure:
as §2, §3

Data set [10] can be described thus: Water solubility. It counts as physicochemical.
Data set [11] is described as follows: Microsomal stability assay. The data set is classed as in vitro ADME. On the procedure: Microsomal stability was determined by Absorption Systems (Exton, PA). INX-315 was tested in mixed-gender human liver microsomes (Lot #1010420), male Sprague-Dawley rat liver microsomes (Lot #1910100), male CD-1 mouse liver microsomes (Lot #2010017), and male beagle dog liver microsomes (Lot #2010046) were purchased from XenoTech/BioIVT by Absorption Systems. The reaction mixture, minus NADPH, was prepared as described below. The test article was added into the reaction mixture at a final concentration of 1 µmol/L. The control compound, testosterone, was run simultaneously with the test article in a separate reaction. The reaction mixture (without cofactor) was equilibrated in a shaking water bath at 37°C for 5 minutes. The reaction was initiated by the addition of the cofactor, and the mixture was incubated in a shaking water bath at 37°C. Aliquots (100 µL) were withdrawn at 0, 10, 20, 30, and 60 minutes. Test article and testosterone samples were immediately combined with 400 µL of ice-cold 50/50 acetonitrile (ACN)/H2O containing 0.1% formic acid and internal standard to terminate the reaction. The samples were then mixed and centrifuged to precipitate proteins. All samples were assayed by LC-MS/MS using electrospray ionization. The peak area response ratio (PARR) of analyte to internal standard at each time point was compared to the PARR at time 0 to determine the percent remaining at each time point. Half-lives and clearance were calculated using GraphPad software (RRID:SCR_002798), fitting to a single-phase exponential decay equation.

In data set [12] the test system is CDK4/6-resistant breast cancer cells. The experiment in a line: Cell number dose-response (discussion summary). It counts as cell-based. As to conditions: addition of INX-315 to CDK4/6-resistant cells. On the procedure: An exception to this is MCF7PDRCl5-1 cells which were first cultured for 5 days without palbociclib then plated as described. MCF7PDRCl5-1 cells were treated with either a dose curve of the indicated CDK4/6i or a dose curve of INX-315 + 1 µmol/L of the indicated CDK4/6i. Cell viability was determined using the CellTiter-Glo assay (Promega, G9241) following manufacturer's instructions. Plates were processed on either BioTek Synergy2 multi-mode (Agilent) or ClarioSTAR (BMG Labtech) plate readers. T47D and MCF7 cells were seeded into […] plates using BioTek 406 (Aglient) and treated with a ten-point dose concentration from 10 µmol/L to 0.3 nmol/L of INX-315 for 2× doubling times. Plates were fixed with 4% PFA and stained with Rhodamine-Phalloidin (Bio-Trend, 00027) and DAPI (5 mg/mL, Invitrogen, catalog no. D1306). Plates were imaged using CellInsight CX7 LZR and DAPI-positive cells were counted using Thermo Fisher Scientific HCS Studio Cell Analysis Software.

T4 sequence (Q86SG6 whole entry): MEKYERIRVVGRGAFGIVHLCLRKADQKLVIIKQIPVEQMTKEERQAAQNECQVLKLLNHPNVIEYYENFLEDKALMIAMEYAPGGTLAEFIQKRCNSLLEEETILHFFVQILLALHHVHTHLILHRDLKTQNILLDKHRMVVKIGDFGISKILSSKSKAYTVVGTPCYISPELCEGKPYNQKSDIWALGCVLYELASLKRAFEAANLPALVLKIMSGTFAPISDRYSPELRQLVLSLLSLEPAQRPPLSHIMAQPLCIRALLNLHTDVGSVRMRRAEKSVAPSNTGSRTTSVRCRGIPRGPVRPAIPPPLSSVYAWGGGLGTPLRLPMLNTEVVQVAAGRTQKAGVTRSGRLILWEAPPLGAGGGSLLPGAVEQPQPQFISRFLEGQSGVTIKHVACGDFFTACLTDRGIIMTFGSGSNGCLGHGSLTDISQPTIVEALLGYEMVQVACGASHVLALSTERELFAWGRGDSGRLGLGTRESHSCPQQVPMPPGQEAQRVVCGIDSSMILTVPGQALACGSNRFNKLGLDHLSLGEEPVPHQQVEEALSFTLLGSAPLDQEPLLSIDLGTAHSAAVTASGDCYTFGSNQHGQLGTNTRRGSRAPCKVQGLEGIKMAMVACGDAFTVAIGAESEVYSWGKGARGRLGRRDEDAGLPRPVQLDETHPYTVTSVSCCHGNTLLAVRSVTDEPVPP
T5 sequence (Q9H2G2 whole entry): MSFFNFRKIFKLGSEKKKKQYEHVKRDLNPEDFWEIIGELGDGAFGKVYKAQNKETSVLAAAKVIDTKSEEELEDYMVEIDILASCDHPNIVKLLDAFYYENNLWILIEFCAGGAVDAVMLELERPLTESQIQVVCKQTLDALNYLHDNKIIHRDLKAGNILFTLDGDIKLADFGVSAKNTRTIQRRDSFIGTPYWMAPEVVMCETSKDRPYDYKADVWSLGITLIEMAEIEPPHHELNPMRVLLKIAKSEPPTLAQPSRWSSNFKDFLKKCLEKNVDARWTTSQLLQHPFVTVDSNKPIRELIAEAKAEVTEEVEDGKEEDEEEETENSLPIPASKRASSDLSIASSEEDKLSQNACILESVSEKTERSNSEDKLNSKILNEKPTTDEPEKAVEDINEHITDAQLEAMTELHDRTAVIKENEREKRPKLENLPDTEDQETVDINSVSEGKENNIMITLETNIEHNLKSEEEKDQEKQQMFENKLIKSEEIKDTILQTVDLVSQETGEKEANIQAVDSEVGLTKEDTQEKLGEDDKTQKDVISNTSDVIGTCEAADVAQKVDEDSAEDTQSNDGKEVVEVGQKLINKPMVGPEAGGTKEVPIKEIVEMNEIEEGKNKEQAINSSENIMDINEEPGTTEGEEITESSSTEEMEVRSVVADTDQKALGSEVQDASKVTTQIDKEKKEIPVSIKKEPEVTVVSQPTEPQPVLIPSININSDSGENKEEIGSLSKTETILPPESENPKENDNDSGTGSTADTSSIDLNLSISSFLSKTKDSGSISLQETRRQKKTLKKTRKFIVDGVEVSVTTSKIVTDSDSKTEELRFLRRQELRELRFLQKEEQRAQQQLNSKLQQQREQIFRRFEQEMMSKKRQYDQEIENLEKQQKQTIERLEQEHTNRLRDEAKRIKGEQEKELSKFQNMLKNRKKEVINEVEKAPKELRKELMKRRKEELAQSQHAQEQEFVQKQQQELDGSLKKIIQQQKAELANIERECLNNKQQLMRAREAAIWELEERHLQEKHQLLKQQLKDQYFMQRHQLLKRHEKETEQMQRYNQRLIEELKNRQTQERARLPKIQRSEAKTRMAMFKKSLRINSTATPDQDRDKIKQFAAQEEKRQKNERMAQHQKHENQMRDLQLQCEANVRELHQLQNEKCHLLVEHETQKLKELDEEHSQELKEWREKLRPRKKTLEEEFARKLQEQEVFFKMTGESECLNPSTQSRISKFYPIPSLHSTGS
T6 sequence (Q9BYP7 whole entry): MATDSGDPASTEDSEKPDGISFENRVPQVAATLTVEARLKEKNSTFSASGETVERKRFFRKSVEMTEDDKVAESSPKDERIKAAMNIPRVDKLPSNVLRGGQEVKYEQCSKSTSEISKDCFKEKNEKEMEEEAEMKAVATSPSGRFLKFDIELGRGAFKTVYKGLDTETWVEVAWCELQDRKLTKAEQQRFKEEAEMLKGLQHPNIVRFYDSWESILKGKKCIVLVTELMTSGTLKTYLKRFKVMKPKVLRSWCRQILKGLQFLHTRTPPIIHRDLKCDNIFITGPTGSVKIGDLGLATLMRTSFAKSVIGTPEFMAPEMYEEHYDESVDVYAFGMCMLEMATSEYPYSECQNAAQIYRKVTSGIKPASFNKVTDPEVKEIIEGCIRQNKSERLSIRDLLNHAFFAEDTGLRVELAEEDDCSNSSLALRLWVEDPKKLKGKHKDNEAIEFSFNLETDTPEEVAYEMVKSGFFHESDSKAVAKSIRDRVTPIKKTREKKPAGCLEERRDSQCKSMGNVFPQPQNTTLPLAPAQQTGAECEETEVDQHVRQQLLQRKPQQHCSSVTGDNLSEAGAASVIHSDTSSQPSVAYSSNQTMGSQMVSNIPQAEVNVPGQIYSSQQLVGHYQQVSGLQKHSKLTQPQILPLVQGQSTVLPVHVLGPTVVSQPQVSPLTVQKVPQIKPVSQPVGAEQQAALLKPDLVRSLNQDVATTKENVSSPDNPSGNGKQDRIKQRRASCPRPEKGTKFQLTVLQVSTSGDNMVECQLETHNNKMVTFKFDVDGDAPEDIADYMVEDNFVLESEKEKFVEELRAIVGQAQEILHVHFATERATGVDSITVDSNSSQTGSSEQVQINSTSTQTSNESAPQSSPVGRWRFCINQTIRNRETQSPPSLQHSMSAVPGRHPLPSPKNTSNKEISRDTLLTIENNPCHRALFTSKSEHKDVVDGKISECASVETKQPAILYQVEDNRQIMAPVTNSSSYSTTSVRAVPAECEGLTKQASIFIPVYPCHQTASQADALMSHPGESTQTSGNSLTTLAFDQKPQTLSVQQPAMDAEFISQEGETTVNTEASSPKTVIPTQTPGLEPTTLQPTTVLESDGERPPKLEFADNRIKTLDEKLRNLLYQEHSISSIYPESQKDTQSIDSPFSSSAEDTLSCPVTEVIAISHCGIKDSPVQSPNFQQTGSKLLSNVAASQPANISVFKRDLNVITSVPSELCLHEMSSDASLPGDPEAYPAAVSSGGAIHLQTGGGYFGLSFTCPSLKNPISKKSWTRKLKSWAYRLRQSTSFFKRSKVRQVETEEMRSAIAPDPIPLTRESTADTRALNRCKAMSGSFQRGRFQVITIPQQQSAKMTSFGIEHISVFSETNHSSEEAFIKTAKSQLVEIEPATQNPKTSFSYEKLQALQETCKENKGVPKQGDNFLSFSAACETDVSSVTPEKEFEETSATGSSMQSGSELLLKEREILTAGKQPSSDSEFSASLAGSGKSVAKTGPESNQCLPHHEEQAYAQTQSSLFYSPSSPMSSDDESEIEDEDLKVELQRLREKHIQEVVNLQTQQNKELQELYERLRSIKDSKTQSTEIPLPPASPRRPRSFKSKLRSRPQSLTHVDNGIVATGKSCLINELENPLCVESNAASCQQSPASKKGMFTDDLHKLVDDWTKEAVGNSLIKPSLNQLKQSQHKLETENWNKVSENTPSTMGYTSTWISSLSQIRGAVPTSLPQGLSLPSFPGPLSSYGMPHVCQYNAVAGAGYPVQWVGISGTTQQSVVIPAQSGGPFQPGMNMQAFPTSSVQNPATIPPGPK

With `NS(=O)(=O)c1ccc(Nc2ncc3cc4n(c3n2)C2(CCCCC2)C(=O)NN4)cc1` [INX-315], the inhibition at 0.1 µM in data set [1] came to 6%; in [2], 98%; in [3] it was 17%; in data set [4], 0%; in data set [5], 22%; in [6], 2%. Besides, the tumor growth result in data set [7] was “slowed tumor growth modestly”; in data set [8] (100 mg/kg twice daily) it was “tumor regression”; in data set [8] (all other treatment groups: 25, 50 mg/kg twice daily, 100 mg/kg once a day), “significant growth inhibition”; in data set [9], “significantly inhibited”. In data set [10], the solubility is below 50 µg/mL. For the same compound, the half-life at 1 µmol/L in [11] (both sexes, human, liver microsomes, 1 µmol/L, 60 min incubation, read-out: Half-life) is above 1 h; in [11] (both sexes, human, liver microsomes, longer than the duration of the experiment, read-out: calculated half-life (in parenthesis)), 1.78 h; in data set [11] (male, CD-1, liver microsomes, Mouse microsomes, 60 min incubation), 0.44 h; in data set [11] (male, Sprague-Dawley, rat, liver microsomes, 1 µmol/L, 60 min incubation, read-out: Half-life), above 1 h; in data set [11] (male, Sprague-Dawley, rat, liver microsomes, longer than the duration of the experiment, read-out: calculated half-life (in parenthesis)), 1.11 h; in data set [11] (male, beagle, dog, liver microsomes, 1 µmol/L, 60 min incubation, read-out: Half-life), above 1 h. Besides, the half-life at 1 µmol/L in data set [11] (male, beagle, dog, liver microsomes, longer than the duration of the experiment, read-out: calculated half-life (in parenthesis)) was 1.34 h. For the same compound, the IC50 in data set [12] is below 25 nM.

These data come from paper PMC10905675, “INX-315, a Selective CDK2 Inhibitor, Induces Cell Cycle Arrest and Senescence in Solid Tumors” (Cancer Discovery, 2023).
